Where two headings read alike, the source gives them in different places.
Legend:
[1] = test system: tobacco budworm GABA-gated chloride channel; assay type: cell-based; conditions: for Fluorescence: then GABA, HEK a-3 cells, average of three tests
Protocol: The following solutions were prepared prior to or on the same day the experiment was to be carried out: • Solution A: To about one liter of deionized water was added 8.0 grams of sodium chloride, 0.395 gram of potassium chloride, 0.294 gram of calcium chloride, 0.203 gram of magnesium chloride, 4.5 grams of glucose, and 2.38 grams of [4-(2-hydroxyethyl)-1-piperazineethanesulfonic acid (“HEPES”) (all available from Aldrich Chemical Company, Milwaukee, Wis.). The resulting solution was stirred until dissolution was complete and then the pH adjusted to 7.3 to 7.4 with an aqueous 1 M sodium hydroxide solution. • Solution B: To one vile of the dye (“FLIPR® Membrane Potential Assay Reagent, Component A”) contained in the FLIPR® Membrane Potential Assay Kit was added about 10 ml of Solution A. The resulting mixture was mixed by repeated pippetting until the content of the vile was completely dissolved and used immediately or stored at […] for future use.
The following solution was prepared on the same day the experiment was to be carried out: • Solution C: To solution B was added about 90 mL of Solution A. The resulting mixture was mixed until dissolution was complete. • Solution D: GABA (available from Sigma Chemical Co., St. Louis, Mo.), […], was taken up in 30 ml of Solution A. The resulting solution was mixed until dissolution was completion, yielding a […] GABA solution. • Solution E: To 1.2 ml of Solution D was added 38.8 ml of Solution A. The resulting mixture was mixed by repeated pippetting until dissolution was complete, yielding a 300 μM GABA solution.
On the same day the experiment is to be carried, Solutions A-E are prepared again in the manner described above.
One day before of the experiment, HEK a-3 cells were seeded into two wells of a poly-D-lysine coated blackwall 96 well microplate with clear bottom at a cell density of about 100,000 cells per well. Upon completion of addition, the cells were incubated at 37° C. in a cell culture incubator for twenty-four hours, for use below.
In carrying out the first step, on the day of the experiment, the 96 well microplate containing the HEK a-3 cells was removed from the incubator and 100 μl of Solution C was added to the two wells of the 96 well microplate. Upon completion of addition, the microplate was allowed to stand at ambient temperature of 3.5 to 4 hours. After this time, the microplate was placed onto the FLIPR^384® Fluorometric Imaging Plate Reader system in which the laser intensity was set at a suitable level to obtain a basal value of approximately 10,000 fluorescence units, fluorescent readings were obtained every one second for the first minute and then every six seconds thereafter, and fluorescence measurements were captured by a cooled CCD camera. After ten seconds from the start of the fluorescence measurements, 25 μl of Solution E was added at a rate of 25 μl/second by the system to one of the two wells of the 96 well microplate. Upon completion of addition, the level of fluorescence of the HEK a-3 cells was determined using the FLIPR^384® Fluorometric Imaging Plate Reader system.
One day before of the experiment, HEK a-3 cells were seeded into each well of a poly-D-lysine coated blackwall 96 well microplate with clear bottom (available from Becton, Dickinson and Company, Franklin Lakes, N.J.) at a cell density of about 100,000 cells per well. Upon completion of addition, the cells were incubated at 37° C. in a cell culture incubator for twenty-four hours, for use below.
In carrying out the first step, on the day of the experiment, the 96 well microplate containing the HEK a-3 cells was removed from the incubator and 100 μl of Solution C were added to each well of the 96 well microplate. Upon completion of addition, the microplate was stored at ambient temperature for 3.5 to 4 hours. […]

[2] = test system: tobacco budworm GABA-gated chloride channel; assay: Fluorescence in HEK a-3 cells by the standard protocol of the FLIPR Membrane Potential Assay Kit; assay type: cell-based; conditions: 25 μl of 300 μM GABA solution; dye incubated at 37° C. for 0.5 to one hour; FIG. 1
Protocol: This example illustrates the measurement of fluorescence in HEK a-3 cells in the manner described in the protocol for the FLIPR® Membrane Potential Assay Kit.
The following solutions were prepared prior to or on the same day the experiment was to be carried out: • Solution A: To about one liter of deionized water was added 8.0 grams of sodium chloride, 0.395 gram of potassium chloride, 0.294 gram of calcium chloride, 0.203 gram of magnesium chloride, 4.5 grams of glucose, and 2.38 grams of [4-(2-hydroxyethyl)-1-piperazineethanesulfonic acid (“HEPES”) (all available from Aldrich Chemical Company, Milwaukee, Wis.). […]
In carrying out the first step, on the day of the experiment, the 96 well microplate containing the HEK a-3 cells was removed from the incubator and 100 μl of Solution C was added to the two wells of the 96 well microplate. […] After this time, the microplate was placed onto the FLIPR^384® Fluorometric Imaging Plate Reader system in which the laser intensity was set at a suitable level to obtain a basal value of approximately 10,000 fluorescence units, fluorescent readings were obtained every one second for the first minute and then every six seconds thereafter, and fluorescence measurements were captured by a cooled CCD camera. […]

[3] = 10 μM compound, [1 − (fluorescence of test compound/fluorescence of control)] × 100
[4] = 0.003 μM compound, relative to DMSO control
[5] = 0.01 μM compound, relative to DMSO control
[6] = 0.03 μM compound, relative to DMSO control
[7] = 0.1 μM compound, relative to DMSO control
[8] = 0.3 μM compound, relative to DMSO control
[9] = 1 μM compound, relative to DMSO control
[10] = 3 μM compound, relative to DMSO control

| SMILES | Fluorescence ([1]; 10 μM compound) | % Inhibition [1, 3] [%] | Fluorescence ([1]; 0.003 μM compound) | % Inhibition [1, 4] [%] | Fluorescence ([1]; 0.01 μM compound) | % Inhibition [1, 5] [%] | Fluorescence ([1]; 0.03 μM compound) | % Inhibition [1, 6] [%] | Fluorescence ([1]; 0.1 μM compound) | % Inhibition [1, 7] [%] | Fluorescence ([1]; 0.3 μM compound) | % Inhibition [1, 8] [%] | Fluorescence ([1]; 1 μM compound) | % Inhibition [1, 9] [%] | Fluorescence ([1]; 3 μM compound) | % Inhibition [1, 10] [%] | change in fluorescence after addition of GABA ([1]; 25 μl of 300 μM GABA solution, dye at ambient temperature 3.5 to 4 hours, FIG. 2) | change in fluorescence after addition of GABA [2] |
| --- | --- | --- | --- | --- | --- | --- | --- | --- | --- | --- | --- | --- | --- | --- | --- | --- | --- | --- |
| CN1CCc2cc3c(cc2[C@H]1[C@@H]1OC(=O)c2c1ccc1c2OCO1)OCO3 [Bicuculine, bicuculine] | 11543 | 5 | – | – | – | – | – | – | – | – | – | – | – | – | – | – | – | – |
| ClC1=C(Cl)[C@]2(Cl)[C@@H]3[C@@H]4C[C@@H]([C@H]5O[C@@H]45)[C@@H]3[C@@]1(Cl)C2(Cl)Cl [Dieldrin, dieldrin] | 67 | 100 | 13284 | −1 | 12339 | 5 | 11492 | 12 | 9924 | 34 | 7279 | 44 | 4184 | 68 | 900 | 93 | – | – |
| O=S1OCC2C(CO1)C1(Cl)C(Cl)=C(Cl)C2(Cl)C1(Cl)Cl (stereo not drawn) [Endosulfan, endosulfan] | 993 | 93 | 14343 | −3 | 15198 | −9 | 11074 | 20 | 7098 | 48 | 4426 | 68 | 1903 | 86 | 1615 | 88 | – | – |
| N#Cc1nn(-c2c(Cl)cc(C(F)(F)F)cc2Cl)c(N)c1[S+]([O-])C(F)(F)F (stereo not drawn) [Fipronil, fipronil] | 628 | 95 | 11275 | 10 | 8328 | 43 | 6441 | 48 | 4469 | 64 | 2990 | 76 | 1790 | 86 | 1031 | 92 | – | – |
| NCCCC(=O)O [GABA, Gamma amino-n-butyric acid] | – | – | – | – | – | – | – | – | – | – | – | – | – | – | – | – | an increase in fluorescence | no change in fluorescence was observed |
| CCCC(C)C1(CC)C(=O)NC(=O)NC1=O (stereo not drawn) [Pentabarbitol] | 11575 | 5 | – | – | – | – | – | – | – | – | – | – | – | – | – | – | – | – |

— patent publication US20060014219A1 (priority 2002, published 2006)
